According to US20070015733A1, “Aryl Phosphate Derivatives of d4T having Activity Against Resistant HIV Strains” (Parker Hughes Institute, priority 1998, published 2007):

Legend:
[1] = tested on: AZT-sensitive HIV-1 (strain: HTLVIIIB); assay: Inhibition of HIV-1 HTLVIIIB in PBMC, RT activity assays (Example 14); type: cell-based; details: Human immunodeficiency virus 1, PBMC
Method: The compounds, as well as AZT, were tested for their ability to inhibit HIV replication in peripheral blood mononuclear cells using previously described procedures (Zarling et. al., 1990 Nature 347:92; Erice et. al., 1993 Antimicrob. Agents Chemother. 37:835; Uckun et. al., 1998 Antimicrob. Agents Chemother. 42:383). […] Percent viral inhibition was calculated by comparing the RT activity values from the test substance-treated infected cells with RT values from untreated infected cells (i.e., virus controls).

[2] = Stability in plasma, whole blood, gastric fluid and intestinal fluid; type: in vitro ADME
Method: Ala-d4T-MP is stable both in plasma and in whole blood. […] This hypothesis is consistent with the formation of a significant amount of d4T after incubation of d4T-5′-[p-bromophenyl methoxyalaninyl phosphate] with a liver homogenate.
Orally administered d4T-5′-[p-bromophenyl methoxyalaninyl phosphate] also yielded Ala-d4T-MP and d4T as the major metabolites. […] This metabolite can be absorbed in the intestine and then further metabolized to yield d4T in the blood. The tmax and t1/2 values for d4T in mice were longer when derived from orally administered d4T-5′-[p-bromophenyl methoxyalaninyl phosphate] (42.4 minutes and 99.0 minutes, respectively) than from orally administered d4T (5 minutes and 18 minutes, respectively). The tmax value is higher but the t1/2 value is lower for orally administered d4T-5′-[p-bromophenyl methoxyalaninyl phosphate] compared to intravenously administered d4T-5′-[p-bromophenyl methoxyalaninyl phosphate]. […] However, the bioavailability of d4T metabolized from d4T-5′-[p-bromophenyl methoxyalaninyl phosphate] (48%) was lower than that of orally administered d4T (98%).

Row | SMILES | IC50 ([1]; Table 15, preliminary, first human source of PBMC) [nM] | IC50 ([1]; Table 16, AZT values in nM per footnote) [nM] | IC50 ([1]; Table 17, later analysis from a larger sample pool) [nM] | stability in gastric fluid ([2]; gastric fluid) | stability in intestinal fluid ([2]; intestinal fluid, forms Ala-d4T-MP) | stability in plasma and whole blood ([2]; plasma or whole blood)
1 | Cc1cn([C@H]2C[C@H](N=[N+]=[N-])[C@@H](CO)O2)c(=O)[nH]c1=O [AZT, 3′-azido-3′-deoxythymidine] | 7 | 81.7 | 4 ± 1 |  |  | 
2 | COC(=O)C(C)NP(=O)(OC[C@@H]1C=C[C@H](n2cc(C)c(=O)[nH]c2=O)O1)Oc1ccc(Br)cc1 (stereo partly drawn) [Compound 1c, d4T-5′-[p-bromo-phenylmethoxyalaninyl phosphate]] |  |  |  | stable in gastric fluid | decomposes readily in intestinal fluid | readily metabolizes
